In brackets after ≈: the same amount, converted by molar mass.
Tests used:
[1] = solubility in water; type: physicochemical; details: crystalline forms of Compound I (anhydrous free base)
[2] = relative stability of crystalline forms (turnover experiments); type: physicochemical; details: for relative phase stability of the crystalline form: relationship between polymorphs of Compound I
Protocol: Crystalline Form II was produced by re-crystallization of Form I in isopropyl acetate and heptane 1:1 at room temperature. Form II was characterized using XRPD, ssNMR, DSC, TGA and IR. […] 17 hr, IPAc 60° C. for one day, H2O 60° C. over two weeks, three days, NMP-water 1-1 35° C. over three days.

Compound	relative phase stability of the crystalline form [2]	other results
CS(=O)(=O)n1cc2c(n1)CN([C@H]1CO[C@H](c3cc(F)ccc3F)[C@@H](N)C1)C2 [Compound I, (2R,3S,5R)-2-(2,5-Difluorophenyl)-5-[2-(methylsulfonyl)-2,6-dihydropyrrolo[3,4-c]pyrazol-5(4H)-yl]tetrahydro-2H-pyran-3-amine]		solubility [1]: ~2000 µg/mL (≈ 5.02 mM)
CS(=O)(=O)n1cc2c(n1)CN([C@H]1CO[C@H](c3cc(F)ccc3F)[C@@H](N)C1)C2 [Form I, (2R,3S,5R)-2-(2,5-Difluorophenyl)-5-[2-(methylsulfonyl)-2,6-dihydropyrrolo[3,4-c]pyrazol-5(4H)-yl]tetrahydro-2H-pyran-3-amine]	most stable phase above 13 °C	
CS(=O)(=O)n1cc2c(n1)CN([C@H]1CO[C@H](c3cc(F)ccc3F)[C@@H](N)C1)C2 [Form II, (2R,3S,5R)-2-(2,5-Difluorophenyl)-5-[2-(methylsulfonyl)-2,6-dihydropyrrolo[3,4-c]pyrazol-5(4H)-yl]tetrahydro-2H-pyran-3-amine]		conversion of Form II into Form I ([2]; turnover experiments with 50-50 seed: DCM-Heptane 25° C., IPAc 25° C. and 60° C., H2O 60° C., NMP-water 1-1 35° C.): slow but observed in all turnover experiments
CS(=O)(=O)n1cc2c(n1)CN([C@H]1CO[C@H](c3cc(F)ccc3F)[C@@H](N)C1)C2 [Form III, (2R,3S,5R)-2-(2,5-Difluorophenyl)-5-[2-(methylsulfonyl)-2,6-dihydropyrrolo[3,4-c]pyrazol-5(4H)-yl]tetrahydro-2H-pyran-3-amine]	metastable to Form I and II	
CS(=O)(=O)n1cc2c(n1)CN([C@H]1CO[C@H](c3cc(F)ccc3F)[C@@H](N)C1)C2 [Form IV, (2R,3S,5R)-2-(2,5-Difluorophenyl)-5-[2-(methylsulfonyl)-2,6-dihydropyrrolo[3,4-c]pyrazol-5(4H)-yl]tetrahydro-2H-pyran-3-amine]	metastable to Form I and II	

Source: patent publication US9181262B2, “Crystalline forms of a dipeptidyl peptidase-IV inhibitors” (Merck Sharp & Dohme Corp, priority 2011, dated 2015)
